≈ marks a conversion by molar mass, not a printed value. Structures can show the parent of a compound that is named as a salt. Where two headings read alike, the source gives them in different places.
Tested on: pathogenic bacteria
Experiment: MIC by microdilution broth method (NCCLS M7-A4), in vitro antibacterial activity
Format: cell-based
Outline: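 Broth microdilution per NCCLS M7-A4: two-fold serial dilutions in cation-adjusted Mueller-Hinton broth, inoculum about 5×10^4 CFU/well. Trays incubated 16–20 h at 35 °C. MIC read by comparing growth against no-compound growth controls.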

[1] = Staphylococcus aureus, Organism A: Staphylococcus aureus OC4172, read-out: MIC
[2] = Streptococcus pneumoniae, ATCC49619, Organism E: Streptococcus pneumoniae ATCC 49619, read-out: MIC
[3] = Streptococcus pneumoniae, Organism B: fluoroquinolone-resistant clinical isolate of Streptococcus pneumoniae (QRDR amino acid substitutions)
[4] = Streptococcus pneumoniae, Organism C: fluoroquinolone-resistant clinical isolate of Streptococcus pneumoniae (QRDR amino acid substitutions)
[5] = Streptococcus pneumoniae, Organism D: fluoroquinolone-resistant clinical isolate of Streptococcus pneumoniae (QRDR amino acid substitutions)

SMILES	MIC [1] [mg/L]	MIC [2] [mg/L]	MIC [3] [mg/L]	MIC [4] [mg/L]	MIC [5] [mg/L]	MIC (Staphylococcus aureus, Organism A: Staphylococcus aureus OC4172) [mg/L]	MIC (Streptococcus pneumoniae, ATCC49619, Organism E: Streptococcus pneumoniae ATCC 49619) [mg/L]
NC/C(Cl)=C1\CCCN(c2cc3c(cc2F)c(=O)c(C(=O)O)cn3C2CC2)C1 [Compound 258, (Z)-7-[3-(2-Amino-1-chloro-ethylidene)-piperidin-1-yl]-1-cyclopropyl-6-fluoro-4-oxo-1,4-dihydro-quinoline-3-carboxylic acid]	≤ 4	8 (≈ 19.7 µM)	8 (≈ 19.7 µM)	> 16	> 16	–	–
NC/C(F)=C1/CCCN(c2c(F)cc3c(=O)c(C(=O)O)cn(C4CC4)c3c2OC(F)F)C1 [Compound 259, (E)-7-[3-(2-Amino-1-fluoro-ethylidene)-piperidin-1-yl]-1-cyclopropyl-8-difluoromethoxy-6-fluoro-4-oxo-1,4-dihydro-quinoline-3-carboxylic acid]	0.03 (≈ 0.0659 µM)	0.06 (≈ 0.132 µM)	0.5 (≈ 1.1 µM)	1 (≈ 2.2 µM)	0.12 (≈ 0.263 µM)	–	–
NC/C(Cl)=C1/CCCN(c2c(F)cc3c(=O)c(C(=O)O)cn(C4CC4)c3c2OC(F)F)C1 [Compound 260, (E)-7-[3-(2-Amino-1-chloro-ethylidene)-piperidin-1-yl]-1-cyclopropyl-8-difluoromethoxy-6-fluoro-4-oxo-1,4-dihydro-quinoline-3-carboxylic acid]	0.03 (≈ 0.0636 µM)	0.06 (≈ 0.127 µM)	–	0.5 (≈ 1.06 µM)	0.06 (≈ 0.127 µM)	–	–
COc1c(N2CCC/C(=C(\Cl)CN)C2)c(F)cc2c(=O)c(C(=O)O)cn(C3CC3)c12 [Compound 261, (E)-7-[3-(2-Amino-1-chloro-ethylidene)-piperidin-1-yl]-1-cyclopropyl-6-fluoro-8-methoxy-4-oxo-1,4-dihydro-quinoline-3-carboxylic Acid Trifluoroacetic Acid Salt]	–	–	0.06	0.06	0.06	≤ 0.015	≤ 0.015
COc1c(N2CCC(=C(Cl)CN)CC2)c(F)cc2c(=O)c(C(=O)O)cn([C@@H]3C[C@@H]3F)c12 [Compound 262, 7-[4-(2-Amino-1-chloro-ethylidene)-piperidin-1-yl]-6-fluoro-(1R,2S)-1-(2-fluoro-cyclopropyl)-8-methoxy-4-oxo-1,4-dihydro-quinoline-3-carboxylic acid]	≤ 0.015	0.25 (≈ 0.551 µM)	–	1 (≈ 2.2 µM)	1 (≈ 2.2 µM)	–	–
Cc1c(F)c(N2CCC(=C(Cl)CN)CC2)cc2c1c(=O)c(C(=O)O)cn2C1CC1 [Compound 263, 7-[4-(2-Amino-1-chloro-ethylidene)-piperidin-1-yl]-1-cyclopropyl-6-fluoro-5-methyl-4-oxo-1,4-dihydro-quinoline-3-carboxylic Acid]	0.03 (≈ 0.0714 µM)	0.12 (≈ 0.286 µM)	0.5 (≈ 1.19 µM)	1 (≈ 2.38 µM)	0.5 (≈ 1.19 µM)	–	–
CNCC(Cl)=C1CCN(c2c(F)cc3c(=O)c(C(=O)O)cn(C4CC4)c3c2O)CC1.Cl [Compound 267, 7-[4-(1-Chloro-2-methylamino-ethylidene)-piperidin-1-yl]-1-cyclopropyl-6-fluoro-8-hydroxy-4-oxo-1,4-dihydro-quinoline-3-carboxylic Acid Hydrochloride Salt]	0.12	0.5	2	2	2	–	–
NCC(Cl)=C1CN(c2c(F)cc3c(=O)c(C(=O)O)cn(-c4nc(N)c(F)cc4F)c3c2Cl)C1 [Compound 268, 7-[3-(2-Amino-1-chloro-ethylidene)-azetidin-1-yl]-1-(6-amino-3,5-difluoro-pyridin-2-yl)-8-chloro-6-fluoro-4-oxo-1,4-dihydro-quinoline-3-carboxylic Acid]	≤ 0.015	0.03 (≈ 0.06 µM)	0.06 (≈ 0.12 µM)	0.12 (≈ 0.24 µM)	0.12 (≈ 0.24 µM)	–	–
NCC(F)=C1CN(c2c(F)cc3c(=O)c(C(=O)O)cn(-c4nc(N)c(F)cc4F)c3c2Cl)C1 [Compound 269, 1-(6-Amino-3,5-difluoro-pyridin-2-yl)-7-[3-(2-amino-1-fluoro-ethylidene)-azetidin-1-yl]-8-chloro-6-fluoro-4-oxo-1,4-dihydro-quinoline-3-carboxylic acid]	≤ 0.015	0.03 (≈ 0.062 µM)	0.25 (≈ 0.517 µM)	0.06 (≈ 0.124 µM)	–	–	–
NCC(Cl)=C1CCN(c2c(F)cc3c(=O)c(C(=O)O)cn(-c4nc(N)c(F)cc4F)c3c2Cl)CC1 [Compound 270, 7-[4-(2-Amino-1-chloro-ethylidene)-piperidin-1-yl}-1-(6-amino-3,5-difluoropyridin-2-yl)-8-chloro-6-fluoro-4-oxo-1,4-dihydro-quinoline-3-carboxylic Acid]	0.06 (≈ 0.114 µM)	0.5 (≈ 0.946 µM)	–	4 (≈ 7.57 µM)	2 (≈ 3.79 µM)	–	–
NCC(Cl)=C1CCN(c2nc3c(cc2F)c(=O)c(C(=O)O)cn3-c2ccc(F)cc2F)CC1 [Compound 271, 7-[4-(2-Amino-1-chloro-ethylidene)-piperidin-1-yl]-1-(2,4-difluoro-phenyl)-6-fluoro-4-oxo-1,4-dihydro-[1,8]naphthyridine-3-carboxylic acid]	≤ 0.015	0.12 (≈ 0.251 µM)	1 (≈ 2.09 µM)	1 (≈ 2.09 µM)	1 (≈ 2.09 µM)	–	–
NCC(F)=C1CN(c2cc3c(cc2F)c(=O)c(C(=O)O)cn3C2CC2)C1 [Compound 272, 7-[3-(2-amino-1-fluoro-ethylidene)-azetidin-1-yl]-1-cyclopropyl-6-fluoro-4-oxo-1,4-dihydro-quinoline-3-carboxylic acid]	≤ 0.015	0.5 (≈ 1.38 µM)	4 (≈ 11.1 µM)	0.5 (≈ 1.38 µM)	–	–	–
COc1c(N2CC(=C(F)CN)C2)c(F)cc2c(=O)c(C(=O)O)cn(C3CC3)c12 [Compound 273, 7-[3-(2-amino-1-fluoro-ethylidene)-azetidin-1-yl]-1-cyclopropyl-6-fluoro-8-methoxy-4-oxo-1,4-dihydro-quinoline-3-carboxylic acid]	0.03 (≈ 0.0767 µM)	4 (≈ 10.2 µM)	4 (≈ 10.2 µM)	0.5 (≈ 1.28 µM)	–	–	–
COc1c(N2CC(=C(F)CN)C2)ccc2c(=O)c(C(=O)O)cn(C3CC3)c12 [Compound 274, 7-[3-(2-amino-1-fluoro-ethylidene)-azetidin-1-yl]-1-cyclopropyl-8-methoxy-4-oxo-1,4-dihydro-quinoline-3-carboxylic acid]	0.06 (≈ 0.161 µM)	1 (≈ 2.68 µM)	4 (≈ 10.7 µM)	1 (≈ 2.68 µM)	–	–	–
COc1c(N2CCC(=C(Cl)CN)CC2)ccc2c(=O)c(C(=O)O)cn(C3CC3)c12 [Compound 275, 7-[4-(2-Amino-1-chloro-ethylidene)-piperidin-1-yl]-1-cyclopropyl-8-methoxy-4-oxo-1,4-dihydro-quinoline-3-carboxylic acid]	0.03 (≈ 0.0718 µM)	0.12 (≈ 0.287 µM)	1 (≈ 2.39 µM)	1 (≈ 2.39 µM)	1 (≈ 2.39 µM)	–	–
C[C@H]1COc2c(N3CC(=C(F)CN)C3)c(F)cc3c(=O)c(C(=O)O)cn1c23 [Compound 276, 9-[3-(2-Amino-1-fluoro-ethylidene)-azetidin-1-yl]-8-fluoro-(3S)-3-methyl-6-oxo-2,3-dihydro-6H-1-oxa-3a-aza-phenalene-5-carboxylic acid]	≤ 0.015	0.25 (≈ 0.663 µM)	0.5 (≈ 1.33 µM)	2 (≈ 5.3 µM)	4 (≈ 10.6 µM)	–	–
C[C@H]1COc2c(N3CCC(=C(Cl)CN)CC3)c(F)cc3c(=O)c(C(=O)O)cn1c23 [Compound 277, 9-[4-(2-Amino-1-chloro-ethylidene)-piperidin-1-yl]-8-fluoro-(3S)-3-methyl-6-oxo-2,3-dihydro-6H-1-oxa-3a-aza-phenalene-5-carboxylic acid]	≤ 0.015	0.03 (≈ 0.0711 µM)	0.25 (≈ 0.593 µM)	0.25 (≈ 0.593 µM)	0.5 (≈ 1.19 µM)	–	–
N#CC(CN)=C1CCN(c2nc3c(cc2F)c(=O)c(C(=O)O)cn3C2CC2)CC1 [Compound 283, 7-[4-(2-Amino-1-cyano-ethylidene)-piperidin-1-yl]-1-cyclopropyl-6-fluoro-4-oxo-1,4-dihydro-[1,8]naphthyridine-3-carboxylic Acid]	0.25 (≈ 0.629 µM)	0.5 (≈ 1.26 µM)	2 (≈ 5.03 µM)	4 (≈ 10.1 µM)	8 (≈ 20.1 µM)	–	–
N#CC(CN)=C1CCN(c2cc3c(cc2F)c(=O)c(C(=O)O)cn3C2CC2)CC1 [Compound 285, 7-[4-(2-Amino-1-cyano-ethylidene)-piperidin-1-yl]-1-cyclopropyl-6-fluoro-4-oxo-1,4-dihydro-quinoline-3-carboxylic Acid]	0.25 (≈ 0.631 µM)	1 (≈ 2.52 µM)	–	8 (≈ 20.2 µM)	> 16	–	–
NCC(C(=O)O)=C1CCN(c2nc3c(cc2F)c(=O)c(C(=O)O)cn3C2CC2)CC1 [Compound 286, 7-[4-(2-Amino-1-carboxy-ethylidene)-piperidin-1-yl]-1-cyclopropyl-6-fluoro-4-oxo-1,4-dihydro-[1,8]naphthyridine-3-carboxylic Acid]	4 (≈ 9.61 µM)	16 (≈ 38.4 µM)	–	> 16	> 16	–	–
NCCNCC(Cl)=C1CCN(c2nc3c(cc2F)c(=O)c(C(=O)O)cn3C2CC2)CC1.O=C(O)C(F)(F)F [Compound 289, 7-{4-[2-(2-Amino-ethylamino)-1-chloro-ethylidene]-piperidin-1-yl}-1-cyclopropyl-6-fluoro-4-oxo-1,4-dihydro-[1,8]naphthyridine-3-carboxylic Acid Trifluoroacetic Acid Salt]	0.5	0.25	–	1	2	–	–
O=CN1CCN(CC(Cl)=C2CCN(c3nc4c(cc3F)c(=O)c(C(=O)O)cn4C3CC3)CC2)CC1 [Compound 291, 7-{4-[1-Chloro-2-(4-formyl)-piperazin-1-yl-ethylidene]-piperidin-1-yl}-1-cyclopropyl-6-fluoro-4-oxo-1,4-dihydro-[1,8]naphthyridine-3-carboxylic Acid Trifluoroacetic Acid Salt]	2	8	–	> 16	8	–	–

— US20090156577A1, “7-AMINO ALKYLIDENYL-HETEROCYCLIC QUINOLONES AND NAPHTHYRIDONES” (priority 2004, published 2009)
